Patent US20150105252A1, “SUBSTITUTED PYRAZOLES AS HERBICIDES” (E I DU PONT DE NEMOURS AND COMPANY, priority 2013, published 2015)

Key:
barnyardgrass = test: Test F postemergence; type: in vivo, Echinochloa crus-galli; conditions: Postemergence, scale 0 to 100
Description: (§1) Seeds of plant species selected from corn (Zea mays), soybean (Glycine max), velvetleaf (Abutilon theophrasti), lambsquarters (Chenopodium album), wild poinsettia (Euphorbia heterophylla), pigweed, palmer (palmer pigweed, Amaranthus palmeri), common waterhemp (Amaranthus rudis), surinam grass (Brachiaria decumbens), large crabgrass (Digitaria sanguinalis), crabgrass, Brazil (Brazilian crabgrass, Digitaria horizontalis), fall panicum (Panicum dichotomiflorum), giant foxtail (Setaria faberii), green foxtail (Setaria viridis), goosegrass (Eleusine indica), johnsongrass (Sorghum halepense), common ragweed (Ambrosia elation), barnyardgrass (Echinochloa crus-galli), southern sandbur (Cenchrus echinatus), arrowleaf sida (Sida rhombifolia), Italian ryegrass (Lolium multiflorum), dayflower, VA (Virginia (VA) dayflower, Commelina virginica), field bindweed (Convolvulus arvensis), cocklebur (common cocklebur, Xanthium strumarium), morningglory (Ipomoea coccinea), nightshade (eastern black nightshade, Solanum ptycanthum), kochia (Kochia scoparia), yellow nutsedge (Cyperus esculentus), and hairy beggarticks (Bidens pilosa), were planted into a silt loam soil and treated preemergence with test chemicals formulated in a non-phytotoxic solvent mixture which included a surfactant.
(§2) At the same time, plants from these crop and weed species and also horseweed (Canada horseweed, Conyza canadensis), smartweed (ladysthumb smartweed, Polygonum persicaria), waterhemp_RES1, (ALS & Triazine resistant common waterhemp, Amaranthus rudis), and waterhemp_RES2, (ALS & HPPD resistant common waterhemp, Amaranthus rudis) were treated with postemergence applications of test chemicals formulated in the same manner. Plants ranged in height from 2 to 18 cm for postemergence treatments (1- to 4-leaf stage). Treated plants and controls were maintained in a greenhouse for 14 to 21 days, after which time all species were compared to controls and visually evaluated. Plant response ratings, summarized in Table F, are based on a scale of 0 to 100 where 0 is no effect and 100 is complete control. A dash (-) response means no test result.

southern sandbur = test: Test F postemergence; type: in vivo, Cenchrus echinatus; conditions: Postemergence, scale 0 to 100
Description: as §1, §2

field bindweed = test: Test F postemergence; type: in vivo, Convolvulus arvensis; conditions: Postemergence, scale 0 to 100
Description: as §1, §2

Italian ryegrass = test: Test F postemergence; type: in vivo, Lolium multiflorum; conditions: Postemergence, scale 0 to 100
Description: as §1, §2

pigweed, palmer = test: Test F postemergence; type: in vivo, Amaranthus palmeri; conditions: Postemergence, scale 0 to 100
Description: as §1, §2

wild poinsettia = test: Test F postemergence; type: in vivo, Euphorbia heterophylla; conditions: Postemergence, scale 0 to 100
Description: as §1, §2

soybean = test: Test F postemergence; type: in vivo, Glycine max; conditions: Postemergence, scale 0 to 100
Description: as §1, §2

hairy beggarticks = test: Test F postemergence; type: in vivo, Bidens pilosa; conditions: Postemergence, scale 0 to 100
Description: as §1, §2

crabgrass, Brazil = test: Test F postemergence; type: in vivo, Digitaria horizontalis; conditions: Postemergence, scale 0 to 100
Description: as §1, §2

dayflower, VA = test: Test F postemergence; type: in vivo, Commelina virginica; conditions: Postemergence, scale 0 to 100
Description: as §1, §2

fall panicum [1] = test: Test F postemergence; type: in vivo, Panicum dichotomiflorum; conditions: Postemergence, scale 0 to 100
Description: as §1, §2

arrowleaf sida = test: Test F postemergence; type: in vivo, Sida rhombifolia; conditions: Postemergence, scale 0 to 100
Description: as §1, §2

fall panicum [2] = test: Test F preemergence; type: in vivo, Panicum dichotomiflorum
Description: as §1, §2

`CCCNC(=O)c1cc(CC)n(Cc2nc(C(F)(F)F)nn2C)n1` [Compound 109] was tested, and the “Plant response rating, Barnyardgrass” value (barnyardgrass; 16 g ai/ha) was 0, the “Plant response rating, Barnyardgrass” value (barnyardgrass; 31 g ai/ha) was 0 and the “Plant response rating, Barnyardgrass” value (barnyardgrass; 125 g ai/ha) was 30. For the same compound, the “Plant response rating, Barnyardgrass” value (barnyardgrass; 250 g ai/ha) was 50, the “Plant response rating, Southern Sandbur” value (southern sandbur; 16 g ai/ha) was 0 and the “Plant response rating, Southern Sandbur” value (southern sandbur; 31 g ai/ha) was 0. For the same compound, the “Plant response rating, Southern Sandbur” value (southern sandbur; 125 g ai/ha) was 10, the “Plant response rating, Southern Sandbur” value (southern sandbur; 250 g ai/ha) was 20 and the “Plant response rating, Field Bindweed” value (field bindweed; 16 g ai/ha) was 30. The “Plant response rating, Field Bindweed” value (field bindweed; 31 g ai/ha) was 40, the “Plant response rating, Field Bindweed” value (field bindweed; 125 g ai/ha) was 50 and the “Plant response rating, Field Bindweed” value (field bindweed; 250 g ai/ha) was 80. The “Plant response rating, Italian Ryegrass” value (Italian ryegrass; 16 g ai/ha) was 0, the “Plant response rating, Italian Ryegrass” value (Italian ryegrass; 31 g ai/ha) was 0 and the “Plant response rating, Italian Ryegrass” value (Italian ryegrass; 125 g ai/ha) was 15. For the same compound, the “Plant response rating, Italian Ryegrass” value (Italian ryegrass; 250 g ai/ha) was 30, the “Plant response rating, Pigweed, Palmer” value (pigweed, palmer; 16 g ai/ha) was 30 and the “Plant response rating, Pigweed, Palmer” value (pigweed, palmer; 31 g ai/ha) was 50. The “Plant response rating, Pigweed, Palmer” value (pigweed, palmer; 125 g ai/ha) was 60, the “Plant response rating, Pigweed, Palmer” value (pigweed, palmer; 250 g ai/ha) was 70 and the “Plant response rating, Wild Poinsettia” value (wild poinsettia; 16 g ai/ha) was 40. The “Plant response rating, Wild Poinsettia” value (wild poinsettia; 31 g ai/ha) was 50, the “Plant response rating, Wild Poinsettia” value (wild poinsettia; 125 g ai/ha) was 70 and the “Plant response rating, Soybean” value (soybean; 16 g ai/ha) was 50. The “Plant response rating, Soybean” value (soybean; 31 g ai/ha) was 70, the “Plant response rating, Soybean” value (soybean; 125 g ai/ha) was 95 and the “Plant response rating, Soybean” value (soybean; 250 g ai/ha) was 95. The “Plant response rating, Hairy Beggarticks” value (hairy beggarticks; 16 g ai/ha) was 35, the “Plant response rating, Hairy Beggarticks” value (hairy beggarticks; 31 g ai/ha) was 45 and the “Plant response rating, Hairy Beggarticks” value (hairy beggarticks; 125 g ai/ha) was 50. The “Plant response rating, Hairy Beggarticks” value (hairy beggarticks; 250 g ai/ha) was 60, the “Plant response rating, Crabgrass, Brazil” value (crabgrass, Brazil; 16 g ai/ha) was 10 and the “Plant response rating, Crabgrass, Brazil” value (crabgrass, Brazil; 31 g ai/ha) was 10. For the same compound, the “Plant response rating, Crabgrass, Brazil” value (crabgrass, Brazil; 125 g ai/ha) was 40, the “Plant response rating, Crabgrass, Brazil” value (crabgrass, Brazil; 250 g ai/ha) was 70 and the “Plant response rating, Dayflower, VA” value (dayflower, VA; 16 g ai/ha) was 15. For the same compound, the “Plant response rating, Dayflower, VA” value (dayflower, VA; 31 g ai/ha) was 20, the “Plant response rating, Dayflower, VA” value (dayflower, VA; 125 g ai/ha) was 40 and the “Plant response rating, Dayflower, VA” value (dayflower, VA; 250 g ai/ha) was 70. The “Plant response rating, Fall Panicum” value (fall panicum [1]; 16 g ai/ha) was 10, the “Plant response rating, Fall Panicum” value (fall panicum [1]; 31 g ai/ha) was 10 and the “Plant response rating, Fall Panicum” value (fall panicum [1]; 125 g ai/ha) was 20. For the same compound, the “Plant response rating, Fall Panicum” value (fall panicum [1]; 250 g ai/ha) was 30, the “Plant response rating, Arrowleaf Sida” value (arrowleaf sida; 16 g ai/ha) was 30 and the “Plant response rating, Arrowleaf Sida” value (arrowleaf sida; 31 g ai/ha) was 30. The “Plant response rating, Arrowleaf Sida” value (arrowleaf sida; 125 g ai/ha) was 50 and the “Plant response rating, Arrowleaf Sida” value (arrowleaf sida; 250 g ai/ha) was 60.

In the case of `CCCc1cc(C(=O)NC(C)C)nn1Cc1cc(C(F)(F)F)nn1C` [Compound 201], the “Plant response rating, Fall Panicum” value (fall panicum [2]; Preemergence, 16 g ai/ha, scale 0 to 100) is reported as 85, the “Plant response rating, Fall Panicum” value (fall panicum [2]; Preemergence, 62 g ai/ha, scale 0 to 100) is reported as 90 and the “Plant response rating, Fall Panicum” value (fall panicum [2]; Preemergence, 125 g ai/ha, scale 0 to 100) is reported as 100. For the same compound, the “Plant response rating, Fall Panicum” value (fall panicum [2]; Preemergence, 250 g ai/ha, scale 0 to 100) was 100 and the “Plant response rating, Fall Panicum” value (fall panicum [2]; preemergence, 16 g ai/ha, scale 0 to 100, 100 is complete control) was 0.
